From paper PMC7316778 (Nature Communications, 2020)
“And” between values parts separate entries of the source, which are not always exact repeats. Equal values may be shown once. Read-outs that look alike come from different tables or passages of the source.

Legend:
PRKCE (PKC epsilon) = PRKCE (PKC epsilon) (Homo sapiens, UniProt Q02156); experiment: SelectScreen kinase assay
Protocol: (§1) Selectivity profiling assays were performed by the Invitrogen SelectScreen™ Services. […] The concentration of ATP was selected to be equal to the KM, unless indicated otherwise.

FES^S700C HL-60 cells = experiment: CD11b surface expression, neutrophil differentiation; assay type: cell-based, human; conditions: 100 nM; Supplementary Figure 12c; individual replicates; listed as WEL028
FGFR4 = FGFR4 (Homo sapiens, UniProt P22455); experiment: SelectScreen kinase assay
Sequence of FGFR4 (P22455 22-802): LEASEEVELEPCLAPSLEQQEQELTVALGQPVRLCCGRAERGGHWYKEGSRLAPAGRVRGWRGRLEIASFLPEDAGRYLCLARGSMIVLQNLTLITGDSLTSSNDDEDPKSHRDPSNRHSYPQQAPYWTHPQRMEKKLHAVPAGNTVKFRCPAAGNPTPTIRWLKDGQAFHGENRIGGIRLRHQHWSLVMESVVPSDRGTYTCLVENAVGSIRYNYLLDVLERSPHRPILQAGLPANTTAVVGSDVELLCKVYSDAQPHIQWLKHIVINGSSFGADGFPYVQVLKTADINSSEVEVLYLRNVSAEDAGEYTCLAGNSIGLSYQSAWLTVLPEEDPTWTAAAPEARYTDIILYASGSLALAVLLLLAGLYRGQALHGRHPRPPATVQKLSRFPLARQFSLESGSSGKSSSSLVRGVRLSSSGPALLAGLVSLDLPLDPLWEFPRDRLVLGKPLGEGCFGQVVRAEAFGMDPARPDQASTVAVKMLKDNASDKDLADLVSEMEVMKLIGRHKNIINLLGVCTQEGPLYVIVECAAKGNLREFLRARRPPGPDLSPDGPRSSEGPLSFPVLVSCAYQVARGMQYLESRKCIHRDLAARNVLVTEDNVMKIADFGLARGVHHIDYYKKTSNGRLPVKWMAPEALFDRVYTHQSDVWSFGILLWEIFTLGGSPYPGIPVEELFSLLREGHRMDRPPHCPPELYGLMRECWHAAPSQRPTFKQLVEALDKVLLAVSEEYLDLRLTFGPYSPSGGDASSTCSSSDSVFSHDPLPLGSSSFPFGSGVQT
Protocol: as §1

MYO3B (MYO3 beta) = target: T1, MYO3B (MYO3 beta) (Homo sapiens, UniProt Q8WXR4); experiment: SelectScreen kinase assay
T1 sequence (Q8WXR4 1-1341): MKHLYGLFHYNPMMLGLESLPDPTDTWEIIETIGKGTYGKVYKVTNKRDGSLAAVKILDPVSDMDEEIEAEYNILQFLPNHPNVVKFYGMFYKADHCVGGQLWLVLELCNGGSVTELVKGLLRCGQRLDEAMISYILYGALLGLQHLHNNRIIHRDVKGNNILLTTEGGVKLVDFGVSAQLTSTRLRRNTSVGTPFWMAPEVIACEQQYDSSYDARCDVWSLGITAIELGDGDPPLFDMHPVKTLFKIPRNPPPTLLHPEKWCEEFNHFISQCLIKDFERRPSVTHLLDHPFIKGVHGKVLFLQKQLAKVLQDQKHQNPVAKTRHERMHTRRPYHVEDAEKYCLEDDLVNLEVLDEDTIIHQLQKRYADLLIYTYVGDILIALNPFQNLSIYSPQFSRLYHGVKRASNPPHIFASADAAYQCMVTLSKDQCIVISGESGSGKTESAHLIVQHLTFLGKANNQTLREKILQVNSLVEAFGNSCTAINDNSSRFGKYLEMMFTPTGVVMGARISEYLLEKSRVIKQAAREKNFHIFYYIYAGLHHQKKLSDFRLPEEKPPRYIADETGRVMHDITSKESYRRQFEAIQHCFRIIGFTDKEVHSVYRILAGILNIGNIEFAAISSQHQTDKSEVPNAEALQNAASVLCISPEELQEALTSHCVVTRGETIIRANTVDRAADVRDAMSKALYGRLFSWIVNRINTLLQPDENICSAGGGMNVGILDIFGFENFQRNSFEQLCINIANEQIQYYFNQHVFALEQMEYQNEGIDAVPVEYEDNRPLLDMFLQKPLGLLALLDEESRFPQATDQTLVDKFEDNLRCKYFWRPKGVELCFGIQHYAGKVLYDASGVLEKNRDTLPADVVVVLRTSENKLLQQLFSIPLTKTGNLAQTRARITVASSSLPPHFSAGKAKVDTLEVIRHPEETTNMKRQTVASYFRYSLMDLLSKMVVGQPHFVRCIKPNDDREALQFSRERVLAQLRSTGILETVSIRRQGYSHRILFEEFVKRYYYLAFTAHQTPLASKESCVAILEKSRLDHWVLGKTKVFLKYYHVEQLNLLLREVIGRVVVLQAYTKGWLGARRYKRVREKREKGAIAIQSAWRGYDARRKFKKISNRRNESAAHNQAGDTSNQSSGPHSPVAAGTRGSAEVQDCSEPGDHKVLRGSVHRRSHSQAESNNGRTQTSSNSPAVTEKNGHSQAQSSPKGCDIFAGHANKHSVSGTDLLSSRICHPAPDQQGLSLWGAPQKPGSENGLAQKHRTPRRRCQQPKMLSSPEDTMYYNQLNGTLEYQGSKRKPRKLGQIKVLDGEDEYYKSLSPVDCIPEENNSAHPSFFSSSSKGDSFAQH
Protocol: as §1

TXK = TXK (Homo sapiens, UniProt P42681); experiment: SelectScreen kinase assay
Sequence of TXK (P42681 whole entry): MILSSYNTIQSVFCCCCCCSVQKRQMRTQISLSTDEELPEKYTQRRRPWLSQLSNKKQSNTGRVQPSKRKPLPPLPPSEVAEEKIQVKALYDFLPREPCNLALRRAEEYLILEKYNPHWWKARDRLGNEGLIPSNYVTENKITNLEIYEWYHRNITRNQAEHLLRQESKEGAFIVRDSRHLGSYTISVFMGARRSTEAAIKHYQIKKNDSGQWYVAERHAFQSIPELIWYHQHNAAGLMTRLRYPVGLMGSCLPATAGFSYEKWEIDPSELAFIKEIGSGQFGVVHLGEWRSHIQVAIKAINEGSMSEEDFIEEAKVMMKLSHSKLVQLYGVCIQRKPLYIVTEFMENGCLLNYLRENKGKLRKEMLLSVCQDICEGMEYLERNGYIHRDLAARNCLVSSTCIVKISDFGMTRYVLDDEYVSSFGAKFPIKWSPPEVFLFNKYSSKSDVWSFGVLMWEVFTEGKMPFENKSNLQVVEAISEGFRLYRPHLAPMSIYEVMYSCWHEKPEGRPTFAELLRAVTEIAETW
Protocol: as §1

~40 kDa protein = ~40 kDa protein (Homo sapiens, UniProt P28482); experiment: Gel-based target engagement in HL-60 neutrophils; conditions: HL-60, read-out: Inhibition of off-target labeling
Sequence of ~40 kDa protein (P28482 2-360): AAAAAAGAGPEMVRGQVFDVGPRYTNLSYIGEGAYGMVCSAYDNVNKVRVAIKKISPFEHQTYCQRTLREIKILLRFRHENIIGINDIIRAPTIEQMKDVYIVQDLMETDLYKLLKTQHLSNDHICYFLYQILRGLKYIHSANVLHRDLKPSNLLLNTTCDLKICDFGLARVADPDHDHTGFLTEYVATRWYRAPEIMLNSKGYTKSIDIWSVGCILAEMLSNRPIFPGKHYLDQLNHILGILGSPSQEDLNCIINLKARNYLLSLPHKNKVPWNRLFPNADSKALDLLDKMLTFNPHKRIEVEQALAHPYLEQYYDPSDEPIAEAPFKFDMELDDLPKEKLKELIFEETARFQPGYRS
Protocol: Data represent means ± SEM.
The term in situ is used to designate experiments in which live cell cultures are treated with inhibitor, whereas the term in vitro refers to experiments in which the inhibitor is incubated with cell lysates. Compounds were diluted in growth medium from a 1000x concentrated stock solution in DMSO. […] After 48 h, cells were treated with compound for 1 h. Cells were collected by suspension in PBS and centrifuged (1000g, 5 min, rt). Pellets were flash-frozen in liquid nitrogen and stored at −80 °C until use. For in situ treatment post-differentiation, HL-60 cells were differentiated as described above and incubated with compound for 1 h unless specified otherwise. Cells were collected by suspension for non-adherent cells and trypsinization for adherent cells. After collection, cells were centrifuged (200g, 5 min, rt) and washed in equal volume of PBS (1000g, 5 min, rt). Cell pellets were flash-frozen in liquid nitrogen and stored at −80 °C until use.

ACVR1 (ALK2) = ACVR1 (ALK2) (Homo sapiens, UniProt Q04771); experiment: SelectScreen kinase assay
Sequence of ACVR1 (ALK2) (Q04771 21-509): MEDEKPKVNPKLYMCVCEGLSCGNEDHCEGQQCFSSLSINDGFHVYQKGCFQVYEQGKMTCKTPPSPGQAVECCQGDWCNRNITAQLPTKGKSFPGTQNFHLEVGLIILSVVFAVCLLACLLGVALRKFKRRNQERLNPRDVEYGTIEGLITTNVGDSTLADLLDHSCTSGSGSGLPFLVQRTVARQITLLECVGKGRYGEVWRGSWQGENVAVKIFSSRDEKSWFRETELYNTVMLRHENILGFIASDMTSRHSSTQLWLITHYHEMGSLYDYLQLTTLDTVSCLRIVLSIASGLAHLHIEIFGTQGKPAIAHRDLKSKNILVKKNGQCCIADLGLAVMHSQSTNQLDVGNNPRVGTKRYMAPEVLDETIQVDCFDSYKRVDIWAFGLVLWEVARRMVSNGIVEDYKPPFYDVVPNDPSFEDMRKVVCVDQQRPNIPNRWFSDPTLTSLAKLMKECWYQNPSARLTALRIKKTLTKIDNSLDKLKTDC
Protocol: as §1

BMPR1B (ALK6) = BMPR1B (ALK6) (Homo sapiens, UniProt O00238); experiment: SelectScreen kinase assay
Sequence of BMPR1B (ALK6) (O00238 14-502): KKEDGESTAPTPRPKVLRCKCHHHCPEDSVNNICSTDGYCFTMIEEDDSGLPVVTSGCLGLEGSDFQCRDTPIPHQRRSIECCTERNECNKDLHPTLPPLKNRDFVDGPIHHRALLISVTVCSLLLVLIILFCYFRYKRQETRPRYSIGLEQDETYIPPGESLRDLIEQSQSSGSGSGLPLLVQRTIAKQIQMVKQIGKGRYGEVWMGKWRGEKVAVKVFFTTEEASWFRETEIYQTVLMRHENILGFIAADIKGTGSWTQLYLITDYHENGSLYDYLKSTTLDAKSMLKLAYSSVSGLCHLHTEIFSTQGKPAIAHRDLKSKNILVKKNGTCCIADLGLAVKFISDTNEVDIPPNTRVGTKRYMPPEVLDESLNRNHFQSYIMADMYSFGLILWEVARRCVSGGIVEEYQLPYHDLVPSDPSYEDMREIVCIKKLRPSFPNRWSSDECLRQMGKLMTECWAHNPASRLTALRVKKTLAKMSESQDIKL
Protocol: as §1

[1] = target: PIK3CA/PIK3R3 (p110 alpha/p55 gamma) (Homo sapiens, UniProt P42336); experiment: SelectScreen kinase assay; conditions: for Inhibition at 1 µM (%): PIK3CA/PIK3R3 (p110 alpha/p55 gamma), Adapta, ATP 10
Sequence of PIK3CA/PIK3R3 (p110 alpha/p55 gamma) (P42336 whole entry): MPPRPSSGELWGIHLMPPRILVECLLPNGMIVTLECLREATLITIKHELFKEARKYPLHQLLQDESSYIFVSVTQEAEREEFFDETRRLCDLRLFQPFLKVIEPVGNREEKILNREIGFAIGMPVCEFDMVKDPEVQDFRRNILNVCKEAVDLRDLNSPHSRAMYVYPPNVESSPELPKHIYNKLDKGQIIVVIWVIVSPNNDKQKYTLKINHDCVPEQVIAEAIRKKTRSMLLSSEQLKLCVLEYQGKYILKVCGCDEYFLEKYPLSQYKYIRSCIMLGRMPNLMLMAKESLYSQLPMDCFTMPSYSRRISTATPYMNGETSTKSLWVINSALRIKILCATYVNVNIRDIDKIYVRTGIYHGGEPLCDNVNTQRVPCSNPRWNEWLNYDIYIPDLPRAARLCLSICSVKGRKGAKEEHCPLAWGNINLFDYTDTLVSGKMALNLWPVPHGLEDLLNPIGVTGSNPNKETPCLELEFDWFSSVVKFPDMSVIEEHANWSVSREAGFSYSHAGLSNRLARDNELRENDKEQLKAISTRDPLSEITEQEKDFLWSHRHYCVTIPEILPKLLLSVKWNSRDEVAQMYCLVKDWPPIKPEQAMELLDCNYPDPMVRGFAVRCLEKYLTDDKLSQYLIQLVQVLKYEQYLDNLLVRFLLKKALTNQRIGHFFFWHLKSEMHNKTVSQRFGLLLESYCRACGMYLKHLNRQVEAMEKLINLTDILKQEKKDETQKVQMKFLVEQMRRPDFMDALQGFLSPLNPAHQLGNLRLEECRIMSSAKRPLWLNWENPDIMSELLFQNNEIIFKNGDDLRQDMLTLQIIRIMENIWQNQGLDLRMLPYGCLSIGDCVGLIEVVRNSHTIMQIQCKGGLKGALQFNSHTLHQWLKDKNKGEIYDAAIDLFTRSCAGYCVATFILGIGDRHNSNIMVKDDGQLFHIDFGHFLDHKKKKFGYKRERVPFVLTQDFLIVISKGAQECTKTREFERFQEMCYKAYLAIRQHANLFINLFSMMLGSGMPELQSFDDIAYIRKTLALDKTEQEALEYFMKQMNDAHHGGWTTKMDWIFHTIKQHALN
Protocol: as §1

[2] = 1 h, 1 μM WEL028, 1 h preincubation

Sequence of PRKCE (PKC epsilon) (Q02156 whole entry): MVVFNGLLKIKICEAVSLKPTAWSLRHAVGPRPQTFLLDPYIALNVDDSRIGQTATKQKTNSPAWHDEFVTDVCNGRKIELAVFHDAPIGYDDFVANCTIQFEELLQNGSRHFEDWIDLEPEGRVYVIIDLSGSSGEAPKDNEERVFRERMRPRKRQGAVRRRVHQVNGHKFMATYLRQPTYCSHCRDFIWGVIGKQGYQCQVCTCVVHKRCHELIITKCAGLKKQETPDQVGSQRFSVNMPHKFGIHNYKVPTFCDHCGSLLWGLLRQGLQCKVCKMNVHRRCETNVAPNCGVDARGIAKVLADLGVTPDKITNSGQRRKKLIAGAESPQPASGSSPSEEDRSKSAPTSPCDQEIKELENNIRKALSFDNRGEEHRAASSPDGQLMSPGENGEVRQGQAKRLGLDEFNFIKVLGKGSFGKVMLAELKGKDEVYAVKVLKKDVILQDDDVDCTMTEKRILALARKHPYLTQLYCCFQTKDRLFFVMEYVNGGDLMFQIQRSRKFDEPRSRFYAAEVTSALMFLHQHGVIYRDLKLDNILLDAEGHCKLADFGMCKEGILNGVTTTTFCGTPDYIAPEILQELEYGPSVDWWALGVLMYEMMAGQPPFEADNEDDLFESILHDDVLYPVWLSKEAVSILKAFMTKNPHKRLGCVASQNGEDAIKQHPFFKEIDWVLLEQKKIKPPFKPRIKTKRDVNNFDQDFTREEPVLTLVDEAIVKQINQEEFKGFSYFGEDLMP

C#CCOc1ccc(Nc2ncc(Cl)c(Nc3ccccc3NC(=O)C=C)n2)c(OC)c1 [Compound 6]
inhibition at 1 µM (PRKCE (PKC epsilon); [2]): -13%
Inhibition at 1 µM (%) (PRKCE (PKC epsilon); PRKCE (PKC epsilon), 1 µM, ZLYTE, ATP Km app, listed as WEL028, 1 µM): -15% and -11%
CD11b-positive cells (%) (FES^S700C HL-60 cells): 93.1005% and 92.0572% and 93.2155%
inhibition at 1 µM (FGFR4; [2]): 34%
Inhibition at 1 µM (%) (FGFR4; FGFR4, 1 µM, ZLYTE, ATP Km app, listed as WEL028, 1 µM): 38%
inhibition at 1 µM (FGFR4; read-out: Inhibition at 1 µM (%), FGFR4, 1 µM, ZLYTE, ATP Km app): 31%
inhibition at 1 µM (MYO3B (MYO3 beta); [2]): 14%
Inhibition at 1 µM (%) (MYO3B (MYO3 beta); MYO3B (MYO3 beta), 1 µM, LanthaScreen Binding, listed as WEL028, 1 µM): 13%
inhibition at 1 µM (MYO3B (MYO3 beta); read-out: Inhibition at 1 µM (%), MYO3B (MYO3 beta), 1 µM, LanthaScreen Binding): 15%
inhibition at 1 µM (TXK; [2]): 7%
inhibition at 1 µM (TXK; read-out: Inhibition at 1 µM (%), 1 µM, ZLYTE, ATP Km app): 8%
inhibition at 0.1 µM (~40 kDa protein): ~10%
inhibition at 1 µM (ACVR1 (ALK2); [2]): 2%
inhibition at 1 µM (ACVR1 (ALK2); read-out: Inhibition at 1 µM (%), ACVR1 (ALK2), 1 µM, LanthaScreen Binding): 3%
inhibition at 1 µM (BMPR1B (ALK6); 1 h): 24%
inhibition at 1 µM (BMPR1B (ALK6); read-out: Inhibition at 1 µM (%)): 24%
inhibition at 1 µM [1, 2]: 1%
Inhibition at 1 µM (%) [1]: 2%
Inhibition at 1 µM (%) ([1]; listed as WEL028, 1 µM): -1%
